Test results reported in patent US20250161419A1, “SERPIN PEPTIDES AND METHODS OF USING THE SAME” (SERPIN PHARMA, LLC, priority 2022, published 2025).

What was measured:
phospho-ERK1/2 = assay: Cell signaling analysis in PC12 cells, immunoblot of phospho-ERK1/2; type: cell-based, rat
Method: Cell signaling analysis: Rat PC12 cells were purchased from ATCC (CRL-1721). PC12 cells were maintained in high glucose DMEM (Gibco, USA) containing 10% heat-inactivated FBS (Gibco, USA), 5% HyClone heat-inactivated horse serum (Cytiva, USA), penicillin (100 units/ml) and streptomycin ([…]) in 6-well plates that were pre-coated with 0.01 mg/ml type IV collagen (Sigma-Aldrich, St. Louis, MO, USA). Cells were transferred to serum-free medium (SFM) 4 h prior to adding effectors, and then treated with SP163M (2.4, 24 or 240 nM); EI-tPA (12 nM), NGF (0.36 nM), or vehicle (PBS) for 10 min. In some cases, cells were pre-incubated with the competitive antagonist of LRP1, GST-RAP (150 nM) for 15 min or electroporated using the Rat Neuron Nucleofector Amaxa Kit (Lonza Biosciences) and incubated with siRNA to silence LRP1 expression (siLRP1; M-094191-01-0010, Dharmacon) for 48 h. Control cells were transfected with non-targeting control (NTC) siRNA (NTC; D-001810-10-05, Dharmacon). Cells were rinsed with ice-cold PBS and proteins were extracted in RIPA buffer (20 mM sodium phosphate, 150 mM NaCl, pH 7.4, 1% Triton X-100, 0.5% sodium deoxycholate, 0.1% SDS) supplemented with protease and phosphatase inhibitors (Roche Diagnostics, USA). After 30 min on ice, lysates were centrifuged at 15000×g for 5 min, supernatant collected and stored at −20° C. Equal amounts of protein from cell lysates (20 μg), as determined by BCA Protein Assay (ThermoFisher Scientific, Waltham, MA, USA), were subjected to 10% SDS-PAGE and electro-transferred to nitrocellulose membranes. The membranes were blocked with 5% nonfat dried milk and then incubated with primary anti-phospho-AKT (Cell Signaling Technology, Danvers, MA, USA; cat #9271S; 1:1000), anti-phospho-ERK1/2 (Cell Signaling Technology, Danvers, MA, USA; cat #9101S; 1:1000), anti-LRP1 (Cell Signaling Technology, Danvers, MA, USA; cat #64099S; 1:1000) or anti total-ERK1/2 (Cell Signaling Technology, Danvers, MA, USA; cat #91012S; 1:1000). Immunoblots were developed using Radiance, Radiance Q, and Radiance Plus chemiluminescent substrates and imaged using a BioRad ChemiDoc Imaging System (Bio-Rad, Hercules, CA, USA).

PAR2 = assay: MC903 AD model, PAR2 protein expression in ears by western blot; type: in vivo, mouse; conditions: topical, vs MC903
Method: Mice were treated with SP16 in 70% EtOH (MC903+SP16) or drug vehicle (MC903). Normal control (NC) mice were treated with EtOH only. Ears were measured for PAR2 protein expression through western blot analysis (quantitative analysis after normalization to beta-actin shown) (n=3-5). TSLP was measured in both the ears and serum by ELISA (N=3-5). Scratching was assessed over a 3 minute period after a 5-minute acclimatization period and the number of scratches are shown (n=3). IL-4 was measured in ear lysate via ELISA (N=3-5).

IL-1a = assay: OVA-challenge allergic inflammation model, IL-1a in BALF by ELISA; type: in vivo, mouse; conditions: OVA-challenge in sensitized mice, treated during challenge phase, vs vehicle
Method: Mice were subjected to the OVA-challenge allergic inflammation model and treated with vehicle or SP16 during the challenge phase. The bronchoalveolar lavage fluid (BALF) was analyzed for cytokines via ELISA.
The ova-induced model of allergic inflammation is a widely used model of eosinophilic driven allergic diseases.

[1] = test system: eosinophil infiltration into the lungs of mice; assay: OVA-induced allergic inflammation model, eosinophils in BALF by flow cytometry; type: in vivo, mouse; conditions: p=0.04
Method: FIG. 15A: mice were subjected to the OVA-challenge allergic inflammation model and treated with vehicle, SP16, or A1AT during the challenge phase. The BALF was collected and analyzed for the percent of eosinophils and compared to saline (non-challenged) mice, vehicle OVA induced mice, or SP16 treated OVA induced mice.
The impact of SP16 treatment on eosinophilic infiltration in mice was assessed using the OVA-induced allergic inflammation model. The number of eosinophils in the bronchoalveolar lavage fluid was quantified by flow cytometry.

For “VKFNKPFVFLMIEQNTK (SP16 peptide core sequence including the LRP1 binding site; listed as Homo sapiens)”, the “activation of ERK1/2 over time” value (phospho-ERK1/2; 240 nM, 0-30 min) was “robustly activated ERK1/2 from 5 to 30 min”, the “lowest concentration that activated phospho-ERK1/2” value (phospho-ERK1/2; 10 min, 0-240 nM) was 24 nM and the “activation of ERK1/2 in cells transfected with NTC siRNA” value (phospho-ERK1/2; 48 h after transfection) was “ERK1/2 was robustly activated”. The “PAR2 protein expression in ears” value (PAR2) was “PAR2 and TSLP inhibition”, the “IL-1a in BALF” value (IL-1a) was “significantly reduces IL-1a” and the “eosinophil infiltration into the lungs (eosinophils in BALF)” value [1] was “reduces eosinophil infiltration into the lungs”.
